Measured values reported in paper PMC3793977, “High-Throughput Screening (HTS) and Hit Validation to Identify Small Molecule Inhibitors with Activity against NS3/4A proteases from Multiple Hepatitis C Virus Genotypes” (PLoS ONE, 2013).

Legend:
full-length NS3/4A [1] = molecular target: T1, full-length NS3/4A (Hepatitis C virus genotype 1b, UniProt Q9WMX2); assay: SPR binding assay (dissociation equilibrium constant KD); settings: double referenced with blank and unrelated reference protein
T1 construct: wild-type HCV NS3 (HCV polyprotein residues 1027–1657); His-tag (N); made in house
Method: The full-length NS3/4A enzyme was prepared in a storage buffer (50 mM HEPES, pH 7.6, 500 mM NaCl, 1 mM DTT, 0.2% Triton X-100, and 20% glycerol) and immobilized on a CM5 sensor chip using standard amine-coupling at 25°C with running buffer HBS-P (10 mM HEPES, 150 mM NaCl, 0.05% surfactant P-20, pH 7.4) using a Biacore T100 instrument. Flow channels 1 and 3 were activated by 1-ethyl-3-(3-dimethylaminopropyl) carbodiimide hydrocholoride (EDC)/N-hydroxy succinimide (NHS) mixture, and the activated surface was blocked by ethanolamine (pH 8.5) as controls. The NS3/4A enzyme was diluted in 10 mM sodium acetate (pH 5.0), and immobilized to flow channel 4 after sensor surface activation with EDC/NHS with a 7 min injection followed by ethanolamine blocking on unoccupied surface area. NS3/4A immobilization level was ∼8,500 response units (RU). An unrelated reference protein (92 kDa) was also immobilized to flow channel 2 as another control to be compared with NS3/4A (74.6 kDa). Fifteen initial hit compounds were prepared as 10 mM DMSO stock solutions. Compound solutions with a series of increasing concentrations (0–200 µM at 1.5-fold dilution) were applied to all four channels at a 10 µL/min flow rate at 25°C. Sensorgrams were analyzed using Biaevaluation software 2.0.3, and response unit difference (ΔRU) values at each concentration were measured during the equilibration phase. Data were either single referenced with a blank (enthanolamine) or double referenced with both blank and reference protein RU values. SigmaPlot 11.0 was used to fit the data to a single rectangular hyperbolic curve to determine KD values. The hyperbola function, y = ymax·x/(KD+x), was used to plot response units and corresponding concentration, where y is the response, ymax is the maximum response, and x is the compound concentration.

full-length NS3/4A [2] = molecular target: T1, full-length NS3/4A; assay: Type (mechanism) of enzyme inhibition, kinetic analysis; assay type: biochemical
Method: Full-length NS3/4A activity was monitored in the same way as the primary screening with varying concentration of both inhibitor compounds and substrate (0–8 µM). The concentration of compounds varied from 0 to 20 µM at 1.5-fold dilution factor.

NS3 protease domain = molecular target: T2, NS3 protease domain (Hepatitis C virus genotype 1b, UniProt Q9WMX2); assay: Fluorescence enzymatic assay with NS3 protease domain alone; assay type: biochemical; settings: NS3/4A protease domain only; read-out: IC50 NS3 protease domain
T2 construct: the full-length NS3/4A and the NS3/4A protease domain alone
Method: A series of compound concentrations (0 to 200 µM final concentration at 2-fold serial dilution) in 100% DMSO were prepared in a 384-well plate. 20 µL of enzyme solution was distributed to wells, and 0.5 µL of varying concentration of compounds were added and incubated for 5 minutes. The enzyme reaction was initiated by adding 5 µL of the substrate, and its activity was continuously monitored for 6 minutes. The IC50 values were calculated by fitting with the Hill equation (1), with OriginPro 8.5 (OriginLab, Inc.) where y is percent inhibition, x is inhibitor concentration, n is the slope of the concentration–response curve (Hill slope), and Vmax is maximal inhibition from two to four independent assays. [drawing 1] (1)

[3] = molecular target: T3, full-length NS3/4A genotype 1b mutant A156V (Hepatitis C virus genotype 1b, UniProt Q9WMX2, A1182V); assay: Inhibition assay with drug-resistant mutant A156V; assay type: biochemical; settings: genotype 1b full-length mutant
T3 construct: wild-type HCV NS3 (HCV polyprotein residues 1027–1657); His-tag (N); made in house
Method: The full-length genes of wild-type HCV NS3 (HCV polyprotein residues 1027–1657) with a his-tag at the N-terminus and NS4A (residues 1658–1711) with no tag were cloned, co-expressed, and purified as described. Eight NS3 drug resistant mutants (V36M, V36A, T54A, R155K, R155T, A156T, A156S, and 156V) were generated by mutagenesis using full-length, wild-type NS3-containing recombinant plasmid (pETDuet-1/FL NS3/4A) as a template. The over-expression and purification of all mutants were performed by the same method as the wild-type with minor modifications.
The inhibitory activity of the final hit compounds from HTS were tested against three other HCV genotypes (1a, 2a, and 4d), along with a control (genotype 1b) and five NS3 drug-resistant mutants. Eight full-length NS3 mutants (V36M, R155K, A156T, A156S, 156V, V36A, T54A, and R155T) were generated by mutagenesis and purified, and the three HCV NS3/4A protease genotypes were purchased from Anaspec. Unfortunately the enzyme activities of the three mutants V36A, T54A, and R155T were much less than that of the rest of the mutants and were insufficient for testing, therefore mutant studies were done with the five active mutants. Continuous kinetic assays were performed against all hit compounds in the same way as the wild-type NS3/4A. […]

Chymotrypsin = molecular target: T4, Chymotrypsin (Homo sapiens, UniProt P17538); assay: Inhibitor selectivity assay, chymotrypsin (fluorometric); assay type: biochemical
T4 construct: purchased Sigma
Method: To test for selectivity, two human serine proteases, Trypsin and Chymotrypsin (Sigma), were tested with the top two hit compounds from HTS using a fluorometric assay. The fluorogenic substrates used in this study were N-benzoyl-L-Arg-7-amido-4-methylcoumarin (Sigma) and N-succinyl-Ala-Ala-Phe-7-amido-4- methylcoumarin (Sigma) for trypsin and chymotrypsin, respectively. All assays were performed in 384-well black plates (Corning) in a total volume of 24 µL of PBS (pH 7.4) buffer containing 0.01% Triton, 0.1 mg/mL BSA, and 2 mM GSH in triplicate. A series of compound concentrations (0 to 200 µM final concentration at 2-fold serial dilution) in 100% DMSO was prepared in a 384-well plate. 20 µL of trypsin (0.01 mg/mL) and chymotrypsin (0.0001 mg/mL) solutions were distributed into wells, and 0.5 µL of varying concentration of compounds were added and incubated for 10 minutes. The enzyme reaction was initiated by adding 5 µL of the substrate (50 µM final concentration), and fluorescence intensity was continuously monitored at excitation/emission wavelengths of 350 nm/460 nm for 10 minutes.

SMILES: Cc1cc(NC(=O)Cc2csc(NS(=O)(=O)c3ccccc3)n2)ccc1Br [Compound 12]
- SPR binding to NS3/4A, double referenced (full-length NS3/4A [1]): specific binding
- Ki (full-length NS3/4A [2]; competitive model, with respect to substrate): 3.5 µM
- mechanism of inhibition (full-length NS3/4A [2]; with respect to the substrate, best fit model): competitive inhibitors
- IC50 (NS3 protease domain): 9.3 ± 1.6 µM
- IC50 [3]: ≤ 20 µM
- inhibition at 100 µM (Chymotrypsin; 100 µM compound, read-out: Chymotrypsin % Inh at 100 µM): 19%
- IC50 (Chymotrypsin; human chymotrypsin): > 100 µM
